Measurements: paper PMC7248877, “Synthesis and Spectral Identification of Three Schiff Bases with a 2-(Piperazin-1-yl)-N-(thiophen-2-yl methylene)ethanamine Moiety Acting as Novel Pancreatic Lipase Inhibitors: Thermal, DFT, Antioxidant, Antibacterial, and Molecular Docking Investigations” (Molecules, 2020)

Molecular target: T1, porcine pancreatic lipase (Sus scrofa, UniProt P00591)
T1 construct: gene PNLIP
T1 sequence (P00591 1-450): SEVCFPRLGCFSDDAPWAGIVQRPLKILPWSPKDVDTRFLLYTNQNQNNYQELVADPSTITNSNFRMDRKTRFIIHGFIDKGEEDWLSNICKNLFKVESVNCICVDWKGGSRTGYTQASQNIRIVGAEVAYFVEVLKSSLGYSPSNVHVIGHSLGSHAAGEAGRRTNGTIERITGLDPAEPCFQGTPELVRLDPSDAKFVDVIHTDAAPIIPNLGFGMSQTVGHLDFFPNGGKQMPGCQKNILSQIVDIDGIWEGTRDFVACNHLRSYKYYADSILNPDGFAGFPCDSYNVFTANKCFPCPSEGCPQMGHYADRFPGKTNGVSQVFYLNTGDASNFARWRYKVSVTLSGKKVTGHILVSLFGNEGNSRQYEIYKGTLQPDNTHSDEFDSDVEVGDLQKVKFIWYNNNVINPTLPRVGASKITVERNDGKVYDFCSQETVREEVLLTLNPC
Assay: p-nitrophenyl butyrate hydrolysis assay, absorbance at […] nm
Assay type: biochemical

IC50 [µM] | Compound
1160 | CC(=NCCN1CCNCC1)c1ccc(Cl)s1 [L1, N-(1-(5-Chlorothiophen-2-yl)ethylidene)-2-(piperazin-1-yl)ethanamine]
2240 | C(=N\CCN1CCNCC1)/c1cccs1 [L2, 2-(Piperazin-1-yl)-N-(thiophen-2-ylmethylene)ethanamine]
524 | Brc1ccc(C=NCCN2CCNCC2)s1 [L3, N-((5-Bromothiophen-2-yl)methylene)-2-(piperazin-1-yl)ethanamine]
